The term IC50 denotes the concentration that inhibits the measured activity by half.

Some results are limits rather than exact numbers.

The target in the assay is T1, hPARG (Homo sapiens, UniProt Q86W56).
T1 construct: made in house; host or cells: E. coli
T1 sequence (Q86W56 whole entry): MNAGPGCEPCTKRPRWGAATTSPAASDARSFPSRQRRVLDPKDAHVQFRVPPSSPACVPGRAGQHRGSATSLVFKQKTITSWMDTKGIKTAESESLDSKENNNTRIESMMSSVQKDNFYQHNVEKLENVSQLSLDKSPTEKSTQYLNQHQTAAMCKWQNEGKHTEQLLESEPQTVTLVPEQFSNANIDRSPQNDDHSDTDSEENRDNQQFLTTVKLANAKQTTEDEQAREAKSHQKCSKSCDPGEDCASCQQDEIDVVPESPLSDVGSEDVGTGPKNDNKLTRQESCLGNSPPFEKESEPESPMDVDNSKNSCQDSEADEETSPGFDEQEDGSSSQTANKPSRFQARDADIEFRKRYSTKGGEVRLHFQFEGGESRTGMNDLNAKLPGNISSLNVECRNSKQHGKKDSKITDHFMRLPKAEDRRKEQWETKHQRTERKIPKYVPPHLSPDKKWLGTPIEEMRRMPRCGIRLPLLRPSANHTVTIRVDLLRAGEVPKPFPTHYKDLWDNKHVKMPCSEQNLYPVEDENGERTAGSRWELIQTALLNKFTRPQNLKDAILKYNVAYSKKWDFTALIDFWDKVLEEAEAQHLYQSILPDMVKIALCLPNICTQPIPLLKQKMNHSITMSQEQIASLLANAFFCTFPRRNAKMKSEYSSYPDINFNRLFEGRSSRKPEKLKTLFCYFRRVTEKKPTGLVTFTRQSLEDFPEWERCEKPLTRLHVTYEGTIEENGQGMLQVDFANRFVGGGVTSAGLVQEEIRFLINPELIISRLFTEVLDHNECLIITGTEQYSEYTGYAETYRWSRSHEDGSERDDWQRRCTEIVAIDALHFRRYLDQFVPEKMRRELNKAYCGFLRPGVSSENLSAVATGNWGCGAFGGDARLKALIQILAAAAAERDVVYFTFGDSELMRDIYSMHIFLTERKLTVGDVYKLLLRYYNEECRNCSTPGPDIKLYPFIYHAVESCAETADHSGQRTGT
Kind of assay: PARG enzymatic activity assay (HTRF). The assay is classed as biochemical. Conditions: C-terminal His6-tag hPARG 65 pM, biotinylated-NAD ribosylated PARP1 substrate 8 nM. Here is the method:
HTRF assay was used to measure the ability of compounds to inhibit the activity of […] in vitro. C-terminal His6—tag PARG expressed in E. coli was purified and stored at −80° C. in aliquots. Assay measurements were performed with 1×buffer comprising 50 mM Tris pH 7.4, 0.1 mg/mL BSA, 3 mM EDTA, 0.4 mM EGTA, 1 mM DTT, 50 mM KCl and 0.01% Tween 20. Compounds dissolved in DMSO were plated into a 384-well assay plate (PerkinElmer, Catalog #: 6008280) in duplicate using a dispenser (Labcyte, Echo 665), and tested on a 10-point 4-fold serial dilution. Add 5 μL Enzyme mix [hPARG (C-terminal His6—tag, 4.2 μM), 65 pM final] to the test wells. The plates were covered and left to incubate for 60 minutes at RT before the addition of 5 μL substrate mix [biotinylated-NAD ribosylated PARP1 (6.1 μM), 8 nM final] to initiate reaction. After incubating 10 minutes at RT, add 2.5 μL Streptavidin-Eu cryptate (Cisbio, Catalog #: 610SAKLA) and 2.5 μL Mab anti 6HIS-XL665 (Cisbio, Catalog #: 61HISXLA) to the plate, and incubate for 60 minutes at RT. Read on a multimode plate reader (PerkinElmer, Envision 2015) in time-resolved fluorescence (TRF) mode, with excitation at 337 nm and emission at both 620 nm and 665 nm. Average HTRF signal of high control (Wells with 1% DMSO) was calculated and as Vehicle Control (VC). Average HTRF signal of low control (no Enzyme) was calculated and as Positive control (PC).
IC50 values were determined by fitting the data to the standard 4 parameters with Hill Slope using GraphPad Prism software.
A general note: In TR-FRET formats the signal depends on donor and acceptor labels being close together.
Turning to `N#CC1(NS(=O)(=O)c2ccc3c4c(O[C@@H]5CCOC5)ncnc4n(-c4nnc(C(F)F)s4)c3c2)CC1` [Example 8, (R)-N-(1-Cyanocyclopropyl)-9-(5-(difluoromethyl)-1,3,4-thiadiazol-2-yl)-4-((tetrahydrofuran-3-yl)oxy)-9H-pyrimido[4,5-b]indole-7-sulfonamide], the IC50 is ≤ 100 nM.
`CN(CC1CCCOC1)c1ncnc2c1c1ccc(S(=O)(=O)NC3(C#N)CC3)cc1n2-c1nnc(C(F)F)s1` (centres unmarked) [Example 68, N-(1-Cyanocyclopropyl)-9-(5-(difluoromethyl)-1,3,4-thiadiazol-2-yl)-4-(methyl((tetrahydro-2H-pyran-3-yl)methyl)amino)-9H-pyrimido[4,5-b]indole-7-sulfonamide]: the 50% inhibitory concentration (IC50) was ≤ 100 nM.
Take `CN1C[C@H]2C[C@@H]1CN2c1ncnc2c1c1ccc(S(=O)(=O)NC3(C#N)CC3)cc1n2-c1nnc(C(F)F)s1` [Example 30, N-(1-Cyanocyclopropyl)-9-(5-(difluoromethyl)-1,3,4-thiadiazol-2-yl)-4-((1R,4R)-5-methyl-2,5-diazabicyclo[2.2.1]heptan-2-yl)-9H-pyrimido[4,5-b]indole-7-sulfonamide]: the 50% inhibitory concentration (IC50) is ≤ 100 nM.
As to `Cc1cnc2n1CCN(c1ncnc3c1c1ccc(S(=O)(=O)NC4(C#N)CC4)cc1n3-c1nnc(C(F)F)s1)C2` [Example 53, N-(1-Cyanocyclopropyl)-9-(5-(difluoromethyl)-1,3,4-thiadiazol-2-yl)-4-(3-methyl-5,6-dihydroimidazo[1,2-a]pyrazin-7(8H)-yl)-9H-pyrimido[4,5-b]indole-7-sulfonamide], the IC50 is ≤ 100 nM.
Next, `CCN(CC)CCN(C)c1ncnc2c1c1ccc(S(=O)(=O)NC3(C#N)CC3)cc1n2-c1nnc(C(F)F)s1` [Example 15, N-(1-Cyanocyclopropyl)-4-((2-(diethylamino)ethyl)(methyl)amino)-9-(5-(difluoromethyl)-1,3,4-thiadiazol-2-yl)-9H-pyrimido[4,5-b]indole-7-sulfonamide]: ≤ 100 nM.
Next, `CN1C[C@@H]2C[C@H]1CN2c1ncnc2c1c1ccc(S(=O)(=O)NC3(C#N)CC3)cc1n2-c1nnc(C(F)F)s1` [Example 31, N-(1-Cyanocyclopropyl)-9-(5-(difluoromethyl)-1,3,4-thiadiazol-2-yl)-4-((1S,4S)-5-methyl-2,5-diazabicyclo[2.2.1]heptan-2-yl)-9H-pyrimido[4,5-b]indole-7-sulfonamide]: ≤ 100 nM.
Next, `CCN(CC)[C@@H]1CCN(c2ncnc3c2c2ccc(S(=O)(=O)NC4(C#N)CC4)cc2n3-c2nnc(C(F)F)s2)CC1(F)F` [Example 51, (R)-N-(1-Cyanocyclopropyl)-4-(4-(diethylamino)-3,3-difluoropiperidin-1-yl)-9-(5-(difluoromethyl)-1,3,4-thiadiazol-2-yl)-9H-pyrimido[4,5-b]indole-7-sulfonamide]: ≤ 100 nM; `CN(C)CC1CN(c2ncnc3c2c2ccc(S(=O)(=O)NC4(C#N)CC4)cc2n3-c2nnc(C(F)F)s2)CCO1` (centres unmarked) [Example 37, N-(1-Cyanocyclopropyl)-9-(5-(difluoromethyl)-1,3,4-thiadiazol-2-yl)-4-(2-((dimethylamino)methyl)morpholino)-9H-pyrimido[4,5-b]indole-7-sulfonamide]: ≤ 100 nM.
Turning to `Cc1nnc2n1CCN(c1ncnc3c1c1ccc(S(=O)(=O)NC4(C#N)CC4)cc1n3-c1nnc(C(F)F)s1)C2` [Example 47, N-(1-Cyanocyclopropyl)-9-(5-(difluoromethyl)-1,3,4-thiadiazol-2-yl)-4-(3-methyl-5,6-dihydro-[1,2,4]triazolo[4,3-a]pyrazin-7(8H)-yl)-9H-pyrimido[4,5-b]indole-7-sulfonamide], the IC50 is ≤ 100 nM.
For `CCN(CC)[C@@H]1CCN(c2ncnc3c2c2ccc(S(=O)(=O)NC4(C#N)CC4)cc2n3-c2nnc(C(F)F)s2)C[C@H]1F` [Example 35, N-(1-Cyanocyclopropyl)-4-((3R,4R)-4-(diethylamino)-3-fluoropiperidin-1-yl)-9-(5-(difluoromethyl)-1,3,4-thiadiazol-2-yl)-9H-pyrimido[4,5-b]indole-7-sulfonamide], the IC50 was ≤ 100 nM.
As for `N#CC1(NS(=O)(=O)c2ccc3c4c(C#CCN5CCOCC5)ncnc4n(-c4nnc(C(F)F)s4)c3c2)CC1` [Example 86, N-(1-Cyanocyclopropyl)-9-(5-(difluoromethyl)-1,3,4-thiadiazol-2-yl)-4-(3-morpholinoprop-1-yn-1-yl)-9H-pyrimido[4,5-b]indole-7-sulfonamide], the IC50 is ≤ 100 nM.
As to `CCN1CCC2CN(c3ncnc4c3c3ccc(S(=O)(=O)NC5(C#N)CC5)cc3n4-c3nnc(C(F)F)s3)CCC21` (centres unmarked) [Example 38, N-(1-Cyanocyclopropyl)-9-(5-(difluoromethyl)-1,3,4-thiadiazol-2-yl)-4-(1-ethyloctahydro-5H-pyrrolo[3,2-c]pyridin-5-yl)-9H-pyrimido[4,5-b]indole-7-sulfonamide], the IC50 is ≤ 100 nM.
Next, `N#CC1(NS(=O)(=O)c2ccc3c4c(OCCCCN5CCOCC5)ncnc4n(-c4nnc(C(F)F)s4)c3c2)CC1` [Example 3, N-(1-Cyanocyclopropyl)-9-(5-(difluoromethyl)-1,3,4-thiadiazol-2-yl)-4-(4-morpholinobutoxy)-9H-pyrimido[4,5-b]indole-7-sulfonamide]: ≤ 100 nM; `N#CC1(NS(=O)(=O)c2ccc3c4c(OCC(=O)N5CCOCC5)ncnc4n(-c4nnc(C(F)F)s4)c3c2)CC1` [Example 11, N-(1-Cyanocyclopropyl)-9-(5-(difluoromethyl)-1,3,4-thiadiazol-2-yl)-4-(2-morpholino-2-oxoethoxy)-9H-pyrimido[4,5-b]indole-7-sulfonamide]: ≤ 100 nM; `N#CC1(NS(=O)(=O)c2ccc3c4c(OCCN5CCOCC5)ncnc4n(-c4nnc(C(F)F)s4)c3c2)CC1` [Example 1, N-(1-Cyanocyclopropyl)-9-(5-(difluoromethyl)-1,3,4-thiadiazol-2-yl)-4-(2-morpholinoethoxy)-9H-pyrimido[4,5-b]indole-7-sulfonamide]: ≤ 100 nM.
The value for `N#CC1(NS(=O)(=O)c2ccc3c4c(N5CCn6ccnc6C5)ncnc4n(-c4nnc(C(F)F)s4)c3c2)CC1` [Example 44, N-(1-Cyanocyclopropyl)-9-(5-(difluoromethyl)-1,3,4-thiadiazol-2-yl)-4-(5,6-dihydroimidazo[1,2-a]pyrazin-7(8H)-yl)-9H-pyrimido[4,5-b]indole-7-sulfonamide] was ≤ 100 nM; that for `C[C@@H]1CN(c2ncnc3c2c2ccc(S(=O)(=O)NC4(C#N)CC4)cc2n3-c2nnc(C(F)F)s2)C[C@H](C)N1C` [Example 41, N-(1-Cyanocyclopropyl)-9-(5-(difluoromethyl)-1,3,4-thiadiazol-2-yl)-4-((3R,5S)-3,4,5-trimethylpiperazin-1-yl)-9H-pyrimido[4,5-b]indole-7-sulfonamide] was ≤ 100 nM; that for `CN(CC1CCOC1)c1ncnc2c1c1ccc(S(=O)(=O)NC3(C#N)CC3)cc1n2-c1nnc(C(F)F)s1` (centres unmarked) [Example 23, N-(1-Cyanocyclopropyl)-9-(5-(difluoromethyl)-1,3,4-thiadiazol-2-yl)-4-(methyl((tetrahydrofuran-3-yl)methyl)amino)-9H-pyrimido[4,5-b]indole-7-sulfonamide] was ≤ 100 nM.
Next, `CCN[C@@H]1CCN(c2ncnc3c2c2ccc(S(=O)(=O)NC4(C#N)CC4)cc2n3-c2nnc(C(F)F)s2)C[C@@H]1F` [Example 93, N-(1-Cyanocyclopropyl)-9-(5-(difluoromethyl)-1,3,4-thiadiazol-2-yl)-4-((3S,4R)-4-(ethylamino)-3-fluoropiperidin-1-yl)-9H-pyrimido[4,5-b]indole-7-sulfonamide]: ≤ 100 nM; `CCSc1ncnc2c1c1ccc(S(=O)(=O)NC3(C#N)CC3)cc1n2-c1nnc(C(F)F)s1` [Example 26, N-(1-Cyanocyclopropyl)-9-(5-(difluoromethyl)-1,3,4-thiadiazol-2-yl)-4-(ethylthio)-9H-pyrimido[4,5-b]indole-7-sulfonamide]: > 1000 nM.
In the case of `N#CC1(NS(=O)(=O)c2ccc3c4c(SCCO)ncnc4n(-c4nnc(C(F)F)s4)c3c2)CC1` [Example 27, N-(1-Cyanocyclopropyl)-9-(5-(difluoromethyl)-1,3,4-thiadiazol-2-yl)-4-((2-hydroxyethyl)thio)-9H-pyrimido[4,5-b]indole-7-sulfonamide], the half-maximal inhibitory concentration (IC50) is ≤ 100 nM.
With `CN(C[C@H]1CCOC1)c1ncnc2c1c1ccc(S(=O)(=O)NC3(C#N)CC3)cc1n2-c1nnc(C(F)F)s1` [Example 57, (R)-N-(1-Cyanocyclopropyl)-9-(5-(difluoromethyl)-1,3,4-thiadiazol-2-yl)-4-(methyl((tetrahydrofuran-3-yl)methyl)amino)-9H-pyrimido[4,5-b]indole-7-sulfonamide], the IC50 was ≤ 100 nM.
The value for `CN(Cc1ccccn1)c1ncnc2c1c1ccc(S(=O)(=O)NC3(C#N)CC3)cc1n2-c1nnc(C(F)F)s1` [Example 22, N-(1-Cyanocyclopropyl)-9-(5-(difluoromethyl)-1,3,4-thiadiazol-2-yl)-4-(methyl(pyridin-2-ylmethyl)amino)-9H-pyrimido[4,5-b]indole-7-sulfonamide] was 100 to 1000 nM.

Values taken from patent US20260049088A1, “TRICYCLIC HETEROCYCLIC DERIVATIVES, COMPOSITIONS AND USES THEREOF” (Danatlas Pharmaceuticals Co., Ltd., priority 2023, published 2026).
